Drawing on patent publication US20080146614A1, “Therapeutic Agents” (priority 2004, published 2008), this text covers IC50 for 1 compound.

This assay has as its target T1, CB1 receptor (Homo sapiens, UniProt P21554).
T1 construct: expressed in transfected cells
The experiment in a line: [35S]-GTPγS binding assay on membranes from cells stably transfected with the CB1 gene, inhibition of agonist CP55940 (EC80). Type of assay: biochemical. The settings on record: half maximal inhibition of GTPγS binding, EC80 concentration of CP55940. As to the method:
10 μg of membranes prepared from cells stably transfected with the CB1 gene were suspended in 200 μl of 100 mM NaCl, 5 mM MgCl2, 1 mM EDTA, 50 mM HEPES (pH 7.4), 1 mM DTT, 0.1% BSA and 100 μM GDP. To this was added an EC80 concentration of agonist (CP55940), the required concentration of test compound and 0.1 μCi [^35S]-GTPγS. The reaction was allowed to proceed at 30° C. for 45 min. Samples were then transferred on to GF/B filters using a cell harvester and washed with wash buffer (50 mM Tris (pH 7.4), 5 mM MgCl2, 50 mM NaCl). Filters were then covered with scintilant and counted for the amount of [^35S]-GTPγS retained by the filter.
Activity is measured in the absence of all ligands (minimum activity) or in the presence of an EC80 concentration of CP55940 (maximum activity). These activities are set as 0% and 100% activity respectively. At various concentrations of novel ligand, activity is calculated as a percentage of the maximum activity and plotted. The data are fitted using the equation y=A+((B−A)/1+((C/x)UD)) and the IC50 value determined as the concentration required to give half maximal inhibition of GTPγS binding under the conditions used.

Each structure is given as a SMILES string.

T1 sequence (P21554 whole entry): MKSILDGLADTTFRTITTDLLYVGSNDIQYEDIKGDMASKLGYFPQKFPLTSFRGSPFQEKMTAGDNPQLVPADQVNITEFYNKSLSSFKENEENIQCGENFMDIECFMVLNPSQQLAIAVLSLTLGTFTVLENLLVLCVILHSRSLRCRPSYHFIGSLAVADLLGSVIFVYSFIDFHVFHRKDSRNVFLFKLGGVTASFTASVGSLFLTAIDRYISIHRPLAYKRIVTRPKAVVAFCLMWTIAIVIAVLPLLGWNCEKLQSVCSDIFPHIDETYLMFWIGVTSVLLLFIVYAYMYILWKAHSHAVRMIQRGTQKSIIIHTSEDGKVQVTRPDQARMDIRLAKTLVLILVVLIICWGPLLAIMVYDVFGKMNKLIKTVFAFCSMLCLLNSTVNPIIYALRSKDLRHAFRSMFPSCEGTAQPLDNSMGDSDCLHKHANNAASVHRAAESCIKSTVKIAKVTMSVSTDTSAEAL

Compound `CCCS(=O)(=O)Oc1ccc(-c2c(CO)c(C(=O)NN3CCCCC3)nn2-c2ccc(Cl)cc2Cl)cc1` [Example 1, Propane-1-sulfonic acid 4-[2-(2,4-dichlorophenyl)-4-hydroxymethyl-5-(piperidin-1-ylcarbamoyl)-2H-pyrazol-3-yl]-phenyl ester] returned an IC50 of 3.3 nM.
